In patent US20040048834A1, “Antitumoral compounds” (priority 2000, published 2004):
Structures can show the parent of a compound that is named as a salt. Where two headings read alike, the source gives them in different places.

Experiments:
Format in all cases: cell-based
[1] = tested on: P388; experiment: Cytotoxicity of spisulosine analogs, P388 (after Berjeron et al)
[2] = tested on: A549; experiment: Cytotoxicity of spisulosine analogs, A549 (after Berjeron et al)
[3] = tested on: HT29; experiment: Cytotoxicity of spisulosine analogs, HT29 (after Berjeron et al)
[4] = tested on: MEL28; experiment: Cytotoxicity of spisulosine analogs, MEL28 (after Berjeron et al)
[5] = tested on: DU145; experiment: Cytotoxicity of spisulosine analogs, DU145 (after Berjeron et al)
[6] = P388, methodology after Berjeron et al, NA=not active, read-out: Cytotoxicity IC50 P388
[7] = A549, methodology after Berjeron et al, NA=not active, read-out: Cytotoxicity IC50 A549
[8] = HT29, methodology after Berjeron et al, NA=not active, read-out: Cytotoxicity IC50 HT29
[9] = MEL28, methodology after Berjeron et al, NA=not active, read-out: Cytotoxicity IC50 MEL28
[10] = DU145, methodology after Berjeron et al, NA=not active, read-out: Cytotoxicity IC50 DU145
[11] = Mus musculus, P388, P388, methodology after Berjeron et al, NA=not active, read-out: Cytotoxicity IC50 P388
[12] = Homo sapiens, A549, A549, methodology after Berjeron et al, NA=not active, read-out: Cytotoxicity IC50 A549
[13] = Homo sapiens, HT-29, HT29, methodology after Berjeron et al, NA=not active, read-out: Cytotoxicity IC50 HT29
[14] = Homo sapiens, SK-MEL-28, MEL28, methodology after Berjeron et al, NA=not active, read-out: Cytotoxicity IC50 MEL28
[15] = Homo sapiens, DU-145, DU145, methodology after Berjeron et al, NA=not active, read-out: Cytotoxicity IC50 DU145
[16] = A549, methodology after Berjeron et al, NA=not active, hydrochloride, read-out: Cytotoxicity IC50 A549
[17] = HT29, methodology after Berjeron et al, NA=not active, hydrochloride, read-out: Cytotoxicity IC50 HT29

CCCCCCCCCCCCCCC[C@@H](O)[C@H](C)N(C)C
IC50 [1, 6]: 319 nM
IC50 [2, 7]: 319 nM
IC50 [3, 8]: 319 nM
IC50 [4, 9]: 319 nM
IC50 [5, 10]: 319 nM

CCCCCCCCCCCCCCC[C@@H](O)[C@H](C)NC
IC50 [1, 6]: 334 nM
IC50 [2, 7]: 334 nM
IC50 [3, 8]: 334 nM
IC50 [4, 9]: 334 nM
IC50 [5, 10]: 334 nM

CCCCCCCCCCCCCCCC(=NO)C(C)N (stereo not shown)
IC50 [1, 6]: 335 nM
IC50 [2, 7]: 335 nM
IC50 [3, 8]: 335 nM
IC50 [4, 9]: 335 nM
IC50 [5, 10]: 335 nM

CCCCCCCCCCCCCCCC(=O)[C@@H](C)N
IC50 [1, 6]: 156 nM
IC50 [2, 7]: 156 nM
IC50 [3, 8]: 156 nM
IC50 [4, 9]: 313 nM
IC50 [5, 10]: 156 nM

CCCCCCCCCCCCCCC[C@H](O)[C@@H](C)N [(2R,3S)-2-Amino-3-octadecanol]
IC50 [1, 11]: 350 nM
IC50 [2, 12]: 350 nM
IC50 [3, 13]: 350 nM
IC50 [4, 14]: 350 nM
IC50 [5, 15]: 350 nM

CCCCCCCCCCCCCCCCCCC[C@@H](O)[C@H](C)N [(2S,3R)-2-Amino-3-docosanol]
IC50 [1, 11]: 293 nM
IC50 [3, 13]: 1460 nM
IC50 [5, 15]: 1460 nM

CCCCCCCCCCCC[C@@H](O)[C@H](C)N [(2S,3R)-2-Amino-3-pentadecanol]
IC50 [1, 11]: 411 nM
IC50 [2, 12]: 411 nM
IC50 [3, 13]: 411 nM
IC50 [4, 14]: 2050 nM
IC50 [5, 15]: 411 nM

CCCCCCCCCCC[C@@H](O)[C@H](C)N [(2S,3R)-2-Amino-3-tetradecanol]
IC50 [1, 11]: 436 nM
IC50 [2, 12]: 2180 nM
IC50 [3, 13]: 436 nM
IC50 [4, 14]: 2180 nM
IC50 [5, 15]: 2180 nM

CCCCCCCCCCCCCCCCCCCC[C@@H](O)[C@H](C)N [(2S,3R)-2-Amino-3-tricosanol]
IC50 [1, 11]: 1410 nM
IC50 [3, 13]: 2810 nM
IC50 [5, 15]: 2810 nM

CCCCCCCCCCCCCCC[C@@H](OP(=O)(OC)OC)[C@H](C)N [(2S,3R)-2-Amino-O-(dimethylphosphate)-3-octadecanol]
IC50 ([1]; Mus musculus, P388, read-out: Cytotoxicity IC50 P388): 1270 nM
IC50 ([2]; Homo sapiens, A549, read-out: Cytotoxicity IC50 A549): 1270 nM
IC50 ([3]; Homo sapiens, HT-29, read-out: Cytotoxicity IC50 HT29): 1270 nM
IC50 ([4]; Homo sapiens, SK-MEL-28, read-out: Cytotoxicity IC50 MEL28): 1270 nM
IC50 ([5]; Homo sapiens, DU-145, read-out: Cytotoxicity IC50 DU145): 1270 nM

CCCCCCCCCCCCCCC[C@H](Cl)[C@H](C)N [(2S,3S)-2-Amino-3-chloro-octadecane]
IC50 [1, 11]: 329 nM
IC50 [2, 12]: 329 nM
IC50 [3, 13]: 329 nM
IC50 [4, 14]: 329 nM
IC50 [5, 15]: 329 nM

CCCCCCCCCCCCCCC[C@H](O)[C@H](C)N [(2S,3S)-2-Amino-3-octadecanol]
IC50 [1, 11]: 350 nM
IC50 [2, 12]: 350 nM
IC50 [3, 13]: 350 nM
IC50 [4, 14]: 350 nM
IC50 [5, 15]: 350 nM

CCCCCCCCCCCCCCC[C@@H](O)[C@H](C)N [drawing 36, spisulosine-285, reference compound]
IC50 [1, 6]: 35 nM
IC50 [2, 7]: 35 nM
IC50 [3, 8]: 35 nM
IC50 [4, 9]: 175 nM
IC50 [5, 10]: 35 nM

CCCCCCCCCCCCCCCC[C@@H](O)[C@H](C)N [drawing 37, (2S,3R)-2-Amino-3-nonadecanol]
IC50 [1, 11]: 33.4 nM
IC50 [2, 7]: 33.4 nM
IC50 [3, 8]: 33.4 nM
IC50 [4, 14]: 33.4 nM
IC50 [5, 15]: 33.4 nM

CCCCCCCCCCCCCCCCC[C@@H](O)[C@H](C)N [drawing 38, (2S,3R)-2-Amino-3-eicosanol]
IC50 [1, 11]: 31.9 nM
IC50 [2, 7]: 31.9 nM
IC50 [3, 8]: 31.9 nM
IC50 [4, 14]: 319 nM
IC50 [5, 15]: 31.9 nM

CCCCCCCCCCCCC[C@@H](O)[C@H](C)N [drawing 41, (2S,3R)-2-Amino-3-hexadecanol]
IC50 [1, 11]: 388 nM
IC50 [2, 7]: 194 nM
IC50 [3, 8]: 388 nM
IC50 [4, 14]: 368 nM
IC50 [5, 15]: 194 nM

CCCCCCCCCCCCCC[C@@H](O)[C@H](C)N [drawing 44, (2S,3R)-2-Amino-3-heptadecanol]
IC50 [1, 11]: 36.8 nM
IC50 [2, 12]: 36.8 nM
IC50 [3, 13]: 36.8 nM
IC50 [4, 14]: 36.8 nM
IC50 [5, 15]: 36.8 nM

CCCCCCCCCCCCCCC[C@@H](O)[C@H](C)N [drawing 46, Bis-((2S,3R)-2-ammonium-3-octadecanol) L-tartrate]
IC50 [1, 11]: 27.7 nM
IC50 [2, 12]: 27.7 nM
IC50 [3, 13]: 27.7 nM
IC50 [4, 9]: 27.7 nM
IC50 [5, 15]: 27.7 nM

CCCCCCCCCCCCCCC[C@@H](O)[C@H](C)N [drawing 47, (2S,3R)-2-Amino-3-octadecanol hydrochloride]
IC50 ([1]; P388, methodology after Berjeron et al, NA=not active, hydrochloride, read-out: Cytotoxicity IC50 P388): 31.1 nM
IC50 [2, 16]: 31.1 nM
IC50 [3, 17]: 15.5 nM
IC50 ([4]; MEL28, methodology after Berjeron et al, NA=not active, hydrochloride, read-out: Cytotoxicity IC50 MEL28): 311 nM
IC50 ([5]; DU145, methodology after Berjeron et al, NA=not active, hydrochloride, read-out: Cytotoxicity IC50 DU145): 31.1 nM

CCCCCCCCCCCCCCCCCC[C@@H](O)[C@H](C)N [drawing 52, (2S,3R)-2-Amino-3-heneicosanol]
IC50 [1, 11]: 153 nM
IC50 [2, 7]: 305 nM
IC50 [3, 8]: 305 nM
IC50 [4, 14]: 305 nM
IC50 [5, 15]: 305 nM

CCCCCCCCCCCCCCC[C@@H](O)[C@@H](N)CC [drawing 58, (3S,4R)-3-Amino-4-nonadecanol]
IC50 [1, 11]: 33.4 nM
IC50 [2, 7]: 33.4 nM
IC50 [3, 8]: 33.4 nM
IC50 [4, 14]: 334 nM
IC50 [5, 15]: 33.4 nM

CCCCCCCCCCCCCCC[C@@H](O)[C@@H](N)Cc1ccc(O)cc1 [drawing 69, (2S,3R)-2-Amino-1-(4′-hydroxyphenyl)-3-octadecanol]
IC50 [2, 7]: 1320 nM
IC50 [3, 8]: 1320 nM

CCCCCCCCCCCCCCC[C@@H](O)[C@@H](N)Cc1ccc(O)cc1 [drawing 70, (2S,3R)-2-Amino-1-(4′-hydroxyphenyl)-3-octadecanol hydrochloride]
IC50 [2, 16]: 242 nM
IC50 [3, 17]: 242 nM

CCCCCCCCCCCCCCC[C@@H](O)[C@@H](N)CCCN [drawing 71, (4S,5R)-1,4-Diamino-5-eicosanol]
IC50 [2, 12]: 1520 nM
IC50 [3, 13]: 1520 nM

CCCCCCCCCCCCCCC[C@@H](O)[C@@H](N)CCCN [drawing 72, (4S,5R)-1,4-Diamino-5-eicosanol dihydrochloride]
IC50 ([2]; A549, methodology after Berjeron et al, NA=not active, dihydrochloride, read-out: Cytotoxicity IC50 A549): 1240 nM
IC50 ([3]; HT29, methodology after Berjeron et al, NA=not active, dihydrochloride, read-out: Cytotoxicity IC50 HT29): 1240 nM

CCCCCCCCCCCCCCCC(O)C(N)CC (stereo not shown) [drawing 79]
IC50 [1, 6]: 334 nM
IC50 [2, 7]: 334 nM
IC50 [3, 8]: 334 nM
IC50 [4, 9]: 334 nM
IC50 [5, 10]: 334 nM

CCCCCCCCCCCCCC[C@@H](O)[C@H](C)N [drawing 101]
IC50 [1, 6]: 163 nM
IC50 [2, 7]: 163 nM
IC50 [3, 8]: 163 nM
IC50 [4, 9]: 327 nM
IC50 [5, 10]: 163 nM

CCCCCCCCCCCCCCCC(=O)[C@H](C)N [drawing 102]
IC50 [1, 6]: 31.3 nM
IC50 [2, 7]: 156 nM
IC50 [3, 8]: 31.3 nM
IC50 [4, 9]: 156 nM
IC50 [5, 10]: 31.3 nM

CCCCCCCCCCCCCCCCC(=O)[C@H](C)N [drawing 104]
IC50 [1, 6]: 150 nM
IC50 [2, 7]: 150 nM
IC50 [3, 8]: 150 nM
IC50 [4, 9]: 299 nM
IC50 [5, 10]: 150 nM

CCCCCCCCCCCCCCCCCC(=O)[C@H](C)N [drawing 105]
IC50 [1, 6]: 144 nM
IC50 [2, 7]: 144 nM
IC50 [3, 8]: 144 nM
IC50 [4, 9]: 287 nM
IC50 [5, 10]: 144 nM

CCCCCCCCCCCCCCCC(=O)[C@@H](N)CC [drawing 106]
IC50 [1, 6]: 29.9 nM
IC50 [2, 7]: 29.9 nM
IC50 [3, 8]: 29.9 nM
IC50 [4, 9]: 299 nM
IC50 [5, 10]: 29.9 nM
